Experimental data: PubChem BioAssay (NCI)
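Briefly, cells in 96-well plates were exposed to five compound concentrations for 48 h, and endpoints were estimated by linear interpolation. The concentration for 50% growth inhibition is given as GI50. TGI is the concentration that stops growth completely.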

Experiments:
Assay in all cases: growth of human tumour cells (NCI), 48 h
U251 CNS = tested on: U251 CNS
SF-539 CNS = tested on: SF-539 CNS
HCT-15 colon = tested on: HCT-15 colon
DU-145 prostate = tested on: DU-145 prostate
MOLT-4 leukemia = tested on: MOLT-4 leukemia
IGROV1 ovarian = tested on: IGROV1 ovarian
SNB-19 CNS = tested on: SNB-19 CNS
SK-MEL-2 melanoma = tested on: SK-MEL-2 melanoma
UACC-257 melanoma = tested on: UACC-257 melanoma
SK-OV-3 ovarian = tested on: SK-OV-3 ovarian
OVCAR-8 ovarian = tested on: OVCAR-8 ovarian
A498 renal = tested on: A498 renal
SK-MEL-28 melanoma = tested on: SK-MEL-28 melanoma
OVCAR-4 ovarian = tested on: OVCAR-4 ovarian
EKVX NSCLC = tested on: EKVX NSCLC
OVCAR-5 ovarian = tested on: OVCAR-5 ovarian
TK-10 renal = tested on: TK-10 renal
A549 NSCLC = tested on: A549 NSCLC
786-0 renal = tested on: 786-0 renal
SK-MEL-5 melanoma = tested on: SK-MEL-5 melanoma
SR leukemia = tested on: SR leukemia
NCI-H226 lung = tested on: NCI-H226 lung
MDA-MB-231 breast = tested on: MDA-MB-231 breast
CCRF-CEM leukemia = tested on: CCRF-CEM leukemia
SN12C renal = tested on: SN12C renal
KM12 colon = tested on: KM12 colon
HS 578T breast = tested on: HS 578T breast
UO-31 renal = tested on: UO-31 renal
SW-620 colon = tested on: SW-620 colon
RPMI-8226 leukemia = tested on: RPMI-8226 leukemia
HCT-116 colon = tested on: HCT-116 colon
M14 melanoma = tested on: M14 melanoma
MALME-3M melanoma = tested on: MALME-3M melanoma
HOP-62 NSCLC = tested on: HOP-62 NSCLC
ACHN renal = tested on: ACHN renal
LOX IMVI melanoma = tested on: LOX IMVI melanoma
K-562 leukemia = tested on: K-562 leukemia
SF-295 CNS = tested on: SF-295 CNS
MDA-N = tested on: MDA-N
UACC-62 melanoma = tested on: UACC-62 melanoma
MCF7 breast = tested on: MCF7 breast
PC-3 prostate = tested on: PC-3 prostate
NCI-H23 lung = tested on: NCI-H23 lung
HT29 colon = tested on: HT29 colon
MDA-MB-435 = tested on: MDA-MB-435
NCI/ADR-RES ovarian = tested on: NCI/ADR-RES ovarian
COLO 205 colon = tested on: COLO 205 colon
OVCAR-3 ovarian = tested on: OVCAR-3 ovarian
SNB-75 CNS = tested on: SNB-75 CNS
SF-268 CNS = tested on: SF-268 CNS
RXF 393 renal = tested on: RXF 393 renal
NCI-H522 lung = tested on: NCI-H522 lung
HL-60(TB) leukemia = tested on: HL-60(TB) leukemia
NCI-H460 lung = tested on: NCI-H460 lung
HCC-2998 colon = tested on: HCC-2998 colon
HOP-92 NSCLC = tested on: HOP-92 NSCLC
BT-549 breast = tested on: BT-549 breast
CAKI-1 renal = tested on: CAKI-1 renal
T-47D breast = tested on: T-47D breast

SMILES: CC(=O)Oc1cc2oc(=O)cc(C)c2cc1OC(C)=O
- TGI (U251 CNS): > 100 µM
- TGI (SF-539 CNS): > 100 µM
- TGI (HCT-15 colon): > 100 µM
- TGI (DU-145 prostate): > 100 µM
- TGI (MOLT-4 leukemia): > 100 µM
- TGI (IGROV1 ovarian): > 100 µM
- TGI (SNB-19 CNS): > 100 µM
- TGI (SK-MEL-2 melanoma): > 100 µM
- TGI (UACC-257 melanoma): > 100 µM
- TGI (SK-OV-3 ovarian): > 100 µM
- TGI (OVCAR-8 ovarian): > 100 µM
- TGI (A498 renal): > 100 µM
- TGI (SK-MEL-28 melanoma): > 100 µM
- TGI (OVCAR-4 ovarian): > 100 µM
- TGI (EKVX NSCLC): > 100 µM
- TGI (OVCAR-5 ovarian): > 100 µM
- TGI (TK-10 renal): > 100 µM
- TGI (A549 NSCLC): > 100 µM
- TGI (786-0 renal): > 100 µM
- TGI (SK-MEL-5 melanoma): > 100 µM
- TGI (SR leukemia): > 100 µM
- TGI (NCI-H226 lung): > 100 µM
- TGI (MDA-MB-231 breast): > 100 µM
- TGI (CCRF-CEM leukemia): > 100 µM
- TGI (SN12C renal): > 100 µM
- TGI (KM12 colon): > 100 µM
- TGI (HS 578T breast): > 100 µM
- TGI (UO-31 renal): > 100 µM
- TGI (SW-620 colon): > 100 µM
- TGI (RPMI-8226 leukemia): > 100 µM
- TGI (HCT-116 colon): > 100 µM
- TGI (M14 melanoma): > 100 µM
- TGI (MALME-3M melanoma): > 100 µM
- TGI (HOP-62 NSCLC): > 100 µM
- TGI (ACHN renal): > 100 µM
- TGI (LOX IMVI melanoma): > 100 µM
- TGI (K-562 leukemia): > 100 µM
- TGI (SF-295 CNS): > 100 µM
- TGI (MDA-N): > 100 µM
- TGI (UACC-62 melanoma): > 100 µM
- TGI (MCF7 breast): > 100 µM
- TGI (PC-3 prostate): > 100 µM
- TGI (NCI-H23 lung): > 100 µM
- TGI (HT29 colon): > 100 µM
- TGI (MDA-MB-435): > 100 µM
- TGI (NCI/ADR-RES ovarian): > 100 µM
- TGI (COLO 205 colon): > 100 µM
- TGI (OVCAR-3 ovarian): > 100 µM
- TGI (SNB-75 CNS): > 100 µM
- TGI (SF-268 CNS): > 100 µM

SMILES: COC(=O)c1ccc2[nH]c(O)c(C(=Nc3ccc(N(C)C(=O)CN4CCN(C)CC4)cc3)c3ccc(OC)cc3)c2c1
- GI50 (U251 CNS): 1.09 µM
- TGI (U251 CNS): 2.48 µM
- GI50 (SF-539 CNS): 0.473 µM
- TGI (SF-539 CNS): 1.76 µM
- GI50 (HCT-15 colon): 1.81 µM
- TGI (HCT-15 colon): 6.61 µM
- GI50 (DU-145 prostate): 2.37 µM
- TGI (DU-145 prostate): 11.3 µM
- GI50 (MOLT-4 leukemia): 0.414 µM
- TGI (MOLT-4 leukemia): 3.62 µM
- GI50 (IGROV1 ovarian): 0.226 µM
- TGI (IGROV1 ovarian): 2.6 µM
- GI50 (RXF 393 renal): 0.466 µM
- TGI (RXF 393 renal): 1.82 µM
- GI50 (SNB-19 CNS): 2.1 µM
- TGI (SNB-19 CNS): 10 µM
- GI50 (SK-MEL-2 melanoma): 2.04 µM
- TGI (SK-MEL-2 melanoma): 7.04 µM
- GI50 (UACC-257 melanoma): 10.5 µM
- TGI (UACC-257 melanoma): 22.8 µM
- GI50 (SK-OV-3 ovarian): 0.228 µM
- TGI (SK-OV-3 ovarian): 1.75 µM
- GI50 (OVCAR-8 ovarian): 1.18 µM
- TGI (OVCAR-8 ovarian): 24.6 µM
- GI50 (A498 renal): 1.52 µM
- TGI (A498 renal): 3.11 µM
- GI50 (NCI-H522 lung): 1.66 µM
- TGI (NCI-H522 lung): 5.6 µM
- GI50 (SK-MEL-28 melanoma): 3.15 µM
- TGI (SK-MEL-28 melanoma): 14 µM
- GI50 (OVCAR-4 ovarian): 0.928 µM
- TGI (OVCAR-4 ovarian): 3.14 µM
- GI50 (EKVX NSCLC): 2.38 µM
- TGI (EKVX NSCLC): 12.4 µM
- GI50 (OVCAR-5 ovarian): 5.21 µM
- TGI (OVCAR-5 ovarian): 17.6 µM
- GI50 (TK-10 renal): 2.39 µM
- TGI (TK-10 renal): 12.4 µM
- GI50 (A549 NSCLC): 2.01 µM
- TGI (A549 NSCLC): 12.1 µM
- GI50 (786-0 renal): 0.73 µM
- TGI (786-0 renal): 2.13 µM
- GI50 (SK-MEL-5 melanoma): 1.35 µM
- TGI (SK-MEL-5 melanoma): 2.77 µM
- GI50 (SR leukemia): 0.309 µM
- TGI (SR leukemia): 4.92 µM
- GI50 (NCI-H226 lung): 0.906 µM
- TGI (NCI-H226 lung): 18.9 µM
- GI50 (MDA-MB-231 breast): 1.07 µM
- TGI (MDA-MB-231 breast): 2.95 µM
- GI50 (HL-60(TB) leukemia): 0.712 µM
- TGI (HL-60(TB) leukemia): 3.15 µM
- GI50 (CCRF-CEM leukemia): 0.414 µM
- TGI (CCRF-CEM leukemia): 11.1 µM
- GI50 (SN12C renal): 0.41 µM
- TGI (SN12C renal): 13.1 µM
- GI50 (KM12 colon): 0.0432 µM
- TGI (KM12 colon): 6.45 µM
- GI50 (NCI-H460 lung): 1.48 µM
- TGI (NCI-H460 lung): 3.76 µM
- GI50 (HS 578T breast): 0.186 µM
- TGI (HS 578T breast): 10.3 µM
- GI50 (UO-31 renal): 1.37 µM
- TGI (UO-31 renal): 4.46 µM
- GI50 (SW-620 colon): 0.756 µM
- TGI (SW-620 colon): 4.35 µM
- GI50 (RPMI-8226 leukemia): 1.46 µM
- TGI (RPMI-8226 leukemia): 4.4 µM
- GI50 (HCT-116 colon): 0.227 µM
- TGI (HCT-116 colon): 10.1 µM
- GI50 (M14 melanoma): 0.724 µM
- TGI (M14 melanoma): 2.28 µM
- GI50 (MALME-3M melanoma): 1.33 µM
- TGI (MALME-3M melanoma): 2.72 µM
- GI50 (HCC-2998 colon): 2.12 µM
- TGI (HCC-2998 colon): 10.6 µM
- GI50 (HOP-62 NSCLC): 1.57 µM
- TGI (HOP-62 NSCLC): 12.4 µM
- GI50 (ACHN renal): 1.71 µM
- TGI (ACHN renal): 10.3 µM
- GI50 (LOX IMVI melanoma): 0.506 µM
- TGI (LOX IMVI melanoma): 2.13 µM
- GI50 (K-562 leukemia): 0.255 µM
- TGI (K-562 leukemia): 10.2 µM
- GI50 (HOP-92 NSCLC): 3.7 µM
- TGI (HOP-92 NSCLC): 15.2 µM
- GI50 (SF-295 CNS): 1.25 µM
- TGI (SF-295 CNS): 3.49 µM
- GI50 (BT-549 breast): 1.15 µM
- TGI (BT-549 breast): 2.65 µM
- GI50 (UACC-62 melanoma): 4.96 µM
- TGI (UACC-62 melanoma): 18.6 µM
- GI50 (CAKI-1 renal): 0.383 µM
- TGI (CAKI-1 renal): 11.1 µM
- GI50 (MCF7 breast): 0.518 µM
- TGI (MCF7 breast): 2.49 µM
- GI50 (PC-3 prostate): 1.16 µM
- TGI (PC-3 prostate): 7.77 µM
- GI50 (NCI-H23 lung): 1.25 µM
- TGI (NCI-H23 lung): 3.64 µM
- GI50 (HT29 colon): 1.11 µM
- TGI (HT29 colon): 25.2 µM
- GI50 (MDA-MB-435): 2.05 µM
- TGI (MDA-MB-435): 14.5 µM
- GI50 (NCI/ADR-RES ovarian): 12.5 µM
- TGI (NCI/ADR-RES ovarian): 37.2 µM
- GI50 (COLO 205 colon): 0.664 µM
- TGI (COLO 205 colon): 2.34 µM
- GI50 (T-47D breast): 1.82 µM
- TGI (T-47D breast): 18.1 µM
- GI50 (OVCAR-3 ovarian): 1.23 µM
- TGI (OVCAR-3 ovarian): 2.83 µM
- GI50 (SNB-75 CNS): 0.294 µM
- TGI (SNB-75 CNS): 8.27 µM
- GI50 (SF-268 CNS): 2.61 µM
- TGI (SF-268 CNS): 13.6 µM
